Experiments:
[1] = target: T1, CD73 on U138 human neuroglioma cells (Homo sapiens, UniProt P21589); test: CD73 Cell-Based Assay; conditions: U138 cells, AMP substrate, 2 hours at 37° C., inorganic phosphate by malachite green
T1 construct: U138 cells were obtained from ATCC and cultured in DMEM with 10% FBS; host or cells: U138 human neuroglioma cells
T1 sequence (P21589 27-549): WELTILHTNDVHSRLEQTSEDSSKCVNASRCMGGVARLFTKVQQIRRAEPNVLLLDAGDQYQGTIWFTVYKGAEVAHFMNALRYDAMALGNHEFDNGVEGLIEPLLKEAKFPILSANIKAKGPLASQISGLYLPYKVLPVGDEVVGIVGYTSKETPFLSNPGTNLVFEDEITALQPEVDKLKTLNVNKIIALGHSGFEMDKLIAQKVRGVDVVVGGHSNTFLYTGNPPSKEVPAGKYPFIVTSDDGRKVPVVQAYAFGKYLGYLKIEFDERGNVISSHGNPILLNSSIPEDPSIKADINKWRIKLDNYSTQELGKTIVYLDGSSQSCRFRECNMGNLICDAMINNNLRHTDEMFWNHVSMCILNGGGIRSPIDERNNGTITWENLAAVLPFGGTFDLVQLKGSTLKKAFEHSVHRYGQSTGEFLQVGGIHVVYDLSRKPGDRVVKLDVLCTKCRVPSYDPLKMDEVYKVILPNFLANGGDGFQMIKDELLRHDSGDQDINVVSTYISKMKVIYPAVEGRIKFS
Procedure, shortened: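 Whole U138 cells washed free of phosphate were incubated with 200 μM AMP (mixture concentration before equal-volume addition) plus compound in HEPES-buffered saline, pH 7.4, for 2 h at 37 °C, 5% CO2. Adenosine-forming activity read as inorganic phosphate released into supernatant by malachite green.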

[2] = target: T2, Human CD73 (Homo sapiens, UniProt P21589); test: CD73 Enzyme Assay; format: biochemical; conditions: 0.25 nM hCD73, 25 μM AMP, kinetic read at 360 nm; read-out: CD73 Enzyme Assay IC50
T2 construct: purchased R&D Systems; host or cells: CHO cells
T2 sequence (P21589 27-549): T1 sequence (P21589 27-549)

SMILES | IC50 [1] [nM] | IC50 [2] [nM]
CC(C)Nc1nc(C#N)nc2c1ccn2[C@@H]1O[C@H](COCP(=O)(O)O)[C@@H](O)[C@H]1O [Compound 97, [(2R,3S,4R,5R)-5-[2-cyano-4-(isopropyl-amino)pyrrolo[2,3-d]-pyrimidin-7-yl]-3,4-dihydroxy-tetrahydro-furan-2-yl]methoxy-methylphosphonic acid] | < 10 | 10 to 100
CCNc1nc(Cl)nc2c1ccn2[C@@H]1O[C@H](COCP(=O)(O)O)[C@@H](O)[C@H]1O [Compound 98, [(2R,3S,4R,5R)-5-[2-chloro-4-(ethylamino)-pyrrolo[2,3-d]-pyrimidin-7-yl]-3,4-dihydroxy-tetrahydro-furan-2-yl]methoxy-methylphosphonic acid] | 10 to 100 | 10 to 100
O=P(O)(O)COC[C@H]1O[C@@H](n2ccc3c(NC4CCOCC4)nc(Cl)nc32)[C@H](O)[C@@H]1O [Compound 99, [(2R,3S,4R,5R)-5-[2-chloro-4-(tetrahydro-pyran-4-ylamino)-pyrrolo[2,3-d]-pyrimidin-7-yl]-3,4-dihydroxy-tetrahydro-furan-2-yl]methoxy-methylphosphonic acid] | 10 to 100 | 10 to 100
O=P(O)(O)COC[C@H]1O[C@@H](n2ccc3c(N4CCOCC4)nc(Cl)nc32)[C@H](O)[C@@H]1O [Compound 100, [(2R,3S,4R,5R)-5-(2-chloro-4-morpholino-pyrrolo[2,3-d]-pyrimidin-7-yl)-3,4-dihydroxy-tetrahydro-furan-2-yl]methoxy-methylphosphonic acid] | 10 to 100 | 10 to 100
O=P(O)(O)COC[C@H]1O[C@@H](n2ccc3c(NC4CCC(F)(F)C4)nc(Cl)nc32)[C@H](O)[C@@H]1O (stereo partly drawn) [Compound 101, [(2R,3S,4R,5R)-5-[2-chloro-4-[(3,3-difluoro-cyclopentyl)amino]-pyrrolo[2,3-d]-pyrimidin-7-yl]-3,4-dihydroxy-tetrahydro-furan-2-yl]methoxy-methylphosphonic acid] | < 10 | < 10
O=P(O)(O)COC[C@H]1O[C@@H](n2ccc3c(NC4CC5CC5C4)nc(Cl)nc32)[C@H](O)[C@@H]1O (stereo partly drawn) [Compound 102, [(2R,3S,4R,5R)-5-[4-(3-bicyclo[3.1.0]-hexanylamino)-2-chloro-pyrrolo[2,3-d]-pyrimidin-7-yl]-3,4-dihydroxy-tetrahydro-furan-2-yl]methoxy-methylphosphonic acid] | < 10 | < 10
O=P(O)(O)COC[C@H]1O[C@@H](n2ccc3c(N4CC5CCCC5C4)nc(Cl)nc32)[C@H](O)[C@@H]1O (stereo partly drawn) [Compound 103, [(2R,3S,4R,5R)-5-[4-(3,3a,4,5,6,6a-hexa-hydro-1H-cyclopenta-[c]pyrrol-2-yl)-2-chloro-pyrrolo[2,3-d]-pyrimidin-7-yl]-3,4-dihydroxy-tetrahydro-furan-2-yl]methoxy-methylphosphonic acid] | < 10 | < 10
C[C@H](c1ccccc1)N(C)c1nc(Cl)nc2c1ncn2[C@@H]1O[C@H](COCP(=O)(O)O)[C@@H](O)[C@H]1O [Compound 104] | < 10 | 10 to 100
O=P(O)(O)COC[C@H]1O[C@@H](n2ccc3c(N4CC5CC5C4)nc(Cl)nc32)[C@H](O)[C@@H]1O (stereo partly drawn) [Compound 105, [(2R,3S,4R,5R)-5-[4-(3-azabicyclo[3.1.0]-hexan-3-yl)-2-chloro-pyrrolo[2,3-d]-pyrimidin-7-yl]-3,4-dihydroxy-tetrahydro-furan-2-yl]methoxy-methylphosphonic acid] | < 10 | < 10
C[C@H](Nc1nc(Cl)nc2c1ccn2[C@@H]1O[C@H](COCP(=O)(O)O)[C@@H](O)[C@H]1O)c1ccc(C(F)(F)F)cc1 [Compound 106, [(2R,3S,4R,5R)-5-[2-chloro-4-[[(1S)-1-[4-(trifluoromethyl)-phenyl]ethyl]amino]-pyrrolo[2,3-d]-pyrimidin-7-yl]-3,4-dihydroxy-tetrahydro-furan-2-yl]methoxy-methylphosphonic acid] | < 10 | < 10
